In patent publication US20250145665A1, “MACROCYCLIC PEPTIDES USEFUL AS MODULATORS OF TNF ALPHA” (Bristol-Myers Squibb Company, priority 2023, published 2025):
pIC50: −log10 of the molar value. Starred links: 1 amine or outer side, 2 acyl side, 3 side chain; linkers in the order of their positions; H or OH if unused. Positions of bridges follow the written chain, without caps; N, C: chain ends. Non-standard residues stand in square brackets, D forms with d. Residues, ends and D or L forms follow the SMILES beside them. ξ: configuration not given here. *: point of attachment. X56 = O=C(O)COc1cccc(NC(=O)c2ccc(-c3ccc(C[C@H](N[*:1])C(=O)[*:2])cc3)cc2)c1; Bip(4'-NH) = O=C([C@H](Cc1ccc(-c2ccc(N[*:3])cc2)cc1)N[*:1])[*:2]; Bip(4'-COOH) = N[C@@H](Cc1ccc(-c2ccc(C(=O)O)cc2)cc1)C(=O)O; Trp(1-CH2COOH) = N[C@@H](Cc1cn(CC(=O)O)c2ccccc12)C(=O)O; X11 = CC(=O)N[C@@H](Cc1cn(CC(=O)O)c2ccccc12)C(=O)*; Ala(imidazol-2-yl) = N[C@@H](Cc1ncc[nH]1)C(=O)O; Benzoyl(3-OCH2COOH) = O=C(O)COc1cccc(C(=O)*)c1; X88 = CC(=O)N[C@@H](Cc1ccc(OCC(=O)O)cc1)C(=O)*; Bip = N[C@@H](Cc1ccc(-c2ccccc2)cc1)C(=O)O; X81 = N[C@@H](Cc1ccc(OCC(=O)O)cc1)C(=O)*; X60 = O=C(c1ccc2c(c1)CCc1ccccc1-2)*; X61 = O=C(c1ccc2c(c1)Cc1ccccc1-2)*; Cha = N[C@@H](CC1CCCCC1)C(=O)O; Tle = CC(C)(C)[C@H](N)C(=O)O; ξP = O=C(O)C1CCCN1; Sar = CNCC(=O)O

target: TNFα (Homo sapiens, UniProt P01375); experiment: TNF-Induced HEK-Blue Assay; assay type: cell-based; settings: HEK-Blue-CD40L cells, NF-kB-driven secreted alkaline phosphatase reporter; TNFα 0.5 ng/ml; 18 h; read-out: TNF induced HEK-Blue assay IC50 value
Sequence (P01375 77-233 limits assumed): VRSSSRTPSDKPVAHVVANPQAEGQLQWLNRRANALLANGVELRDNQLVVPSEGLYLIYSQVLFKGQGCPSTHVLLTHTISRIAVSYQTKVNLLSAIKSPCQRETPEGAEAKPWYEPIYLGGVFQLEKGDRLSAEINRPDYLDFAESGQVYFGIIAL

Row | pIC50 | Compound
1 | 6.70 to 7.30 | CC[C@H](C)[C@@H]1NC(=O)[C@@H]2CCCN2C(=O)[C@H]([C@@H](C)CC)NC(=O)[C@@H](CCCNC(=N)N)NC(=O)[C@H](CC(=O)O)NC(=O)[C@H](Cc2ccccc2)NC(=O)CN(C)C(=O)[C@H](Cc2ccc(-c3ccc(NC(=O)[C@H](Cc4cn(CC(=O)O)c5ccccc45)NC(C)=O)cc3)cc2)NC(=O)[C@H](Cc2ccc(-c3ccc(C(=O)O)cc3)cc2)NC(=O)[C@H](C(C)(C)C)NC(=O)CSC[C@@H](C(=O)NCC(N)=O)NC(=O)[C@H](CC(C)C)NC(=O)[C@H](Cc2ncc[nH]2)NC1=O [Example 416] ({CH2CO}-[Tle][Bip(4'-COOH)][Bip(4'-NH)](X11)[Sar]FD[dR]IPI[Ala(imidazol-2-yl)]LCG-NH2; thioether N-13)
2 | > 7.30 | CC[C@H](C)[C@@H]1NC(=O)[C@@H]2CCCN2C(=O)[C@H]([C@@H](C)CC)NC(=O)[C@@H](CCCNC(=N)N)NC(=O)[C@H](CC(=O)O)NC(=O)[C@H](Cc2ccccc2)NC(=O)CN(C)C(=O)[C@H](Cc2ccc(-c3ccc(NC(=O)[C@H](Cc4ccc(OCC(=O)O)cc4)NC(C)=O)cc3)cc2)NC(=O)[C@H](Cc2ccc(-c3ccc(C(=O)O)cc3)cc2)NC(=O)[C@H](C(C)(C)C)NC(=O)CSC[C@@H](C(=O)NCC(N)=O)NC(=O)[C@H](CC(C)C)NC(=O)[C@H](Cc2ncc[nH]2)NC1=O [Example 417] ({CH2CO}-[Tle][Bip(4'-COOH)][Bip(4'-NH)](X88)[Sar]FD[dR]IPI[Ala(imidazol-2-yl)]LCG-NH2; thioether N-13)
3 | 6.70 to 7.30 | CC[C@H](C)[C@@H]1NC(=O)[C@@H]2CCCN2C(=O)[C@H]([C@@H](C)CC)NC(=O)[C@@H](CCCNC(=N)N)NC(=O)[C@H](CC(=O)O)NC(=O)[C@H](Cc2ccccc2)NC(=O)CN(C)C(=O)[C@H](Cc2ccc(-c3ccc(NC(=O)c4ccc5c(c4)Cc4ccccc4-5)cc3)cc2)NC(=O)[C@H](Cc2ccc(-c3ccc(C(=O)O)cc3)cc2)NC(=O)[C@H](C(C)(C)C)NC(=O)CSC[C@@H](C(=O)NCC(N)=O)NC(=O)[C@H](CC(C)C)NC(=O)[C@H](Cc2cnc[nH]2)NC1=O [Example 418] ({CH2CO}-[Tle][Bip(4'-COOH)][Bip(4'-NH)](X61)[Sar]FD[dR]IPIHLCG-NH2; thioether N-13)
4 | 5.70 to 6.70 | CC[C@H](C)[C@@H]1NC(=O)C2CCCN2C(=O)[C@H]([C@@H](C)CC)NC(=O)[C@@H](CCCNC(=N)N)NC(=O)[C@H](CC(=O)O)NC(=O)[C@H](Cc2ccccc2)NC(=O)CN(C)C(=O)[C@H](Cc2ccc(-c3ccc(NC(=O)c4ccc5c(c4)CCc4ccccc4-5)cc3)cc2)NC(=O)[C@H](Cc2ccc(-c3ccc(C(=O)O)cc3)cc2)NC(=O)[C@H](C(C)(C)C)NC(=O)CSC[C@@H](C(=O)NCC(N)=O)NC(=O)[C@H](CC(C)C)NC(=O)[C@H](Cc2ncc[nH]2)NC1=O (stereo partly shown) [Example 419] ({CH2CO}-[Tle][Bip(4'-COOH)][Bip(4'-NH)](X60)[Sar]FD[dR]I[ξP]I[Ala(imidazol-2-yl)]LCG-NH2; thioether N-13)
5 | 6.70 to 7.30 | CC[C@H](C)[C@@H]1NC(=O)[C@@H](CCCNC(=N)N)NC(=O)[C@H](CC(=O)O)NC(=O)[C@H](Cc2cnc[nH]2)NC(=O)CN(C)C(=O)[C@H](Cc2ccc(-c3ccc(NC(=O)[C@@H](N)Cc4cn(CC(=O)O)c5ccccc45)cc3)cc2)NC(=O)[C@H](Cc2ccc(-c3ccccc3)cc2)NC(=O)[C@H](CC2CCCCC2)NC(=O)CSC[C@@H](C(=O)NCC(N)=O)NC(=O)[C@H](CC(C)C)NC(=O)[C@H](Cc2ncc[nH]2)NC(=O)[C@H](C(C)C)NC(=O)C2CCCN2C1=O (stereo partly shown) [Example 420] ({CH2CO}-[Cha][Bip][Bip(4'-NH)](Trp(1-CH2COOH))[Sar]HD[dR]I[ξP]V[Ala(imidazol-2-yl)]LCG-NH2; thioether N-13)
6 | 6.70 to 7.30 | CC[C@H](C)[C@@H]1NC(=O)C2CCCN2C(=O)[C@H]([C@@H](C)CC)NC(=O)[C@@H](CCCNC(=N)N)NC(=O)[C@H](CC(=O)O)NC(=O)[C@H](Cc2ccccc2)NC(=O)CN(C)C(=O)[C@H](Cc2ccc(-c3ccc(NC(=O)[C@@H](N)Cc4ccc(OCC(=O)O)cc4)cc3)cc2)NC(=O)[C@H](Cc2ccc(-c3ccc(C(=O)O)cc3)cc2)NC(=O)[C@H](C(C)(C)C)NC(=O)CSC[C@@H](C(=O)NCC(N)=O)NC(=O)[C@H](CC(C)C)NC(=O)[C@H](Cc2ncc[nH]2)NC1=O (stereo partly shown) [Example 421] ({CH2CO}-[Tle][Bip(4'-COOH)][Bip(4'-NH)](X81)[Sar]FD[dR]I[ξP]I[Ala(imidazol-2-yl)]LCG-NH2; thioether N-13)
7 | > 7.30 | CC[C@H](C)[C@@H]1NC(=O)[C@@H](CCCNC(=N)N)NC(=O)[C@H](CC(=O)O)NC(=O)[C@H](Cc2cnc[nH]2)NC(=O)CN(C)C(=O)[C@H](Cc2ccc(-c3ccc(NC(=O)c4cccc(OCC(=O)O)c4)cc3)cc2)NC(=O)[C@H](Cc2ccc(-c3ccc(C(=O)Nc4cccc(OCC(=O)O)c4)cc3)cc2)NC(=O)[C@H](CC2CCCCC2)NC(=O)CSC[C@@H](C(=O)NCC(N)=O)NC(=O)[C@H](CC(C)C)NC(=O)[C@H](Cc2ncc[nH]2)NC(=O)[C@H](C(C)C)NC(=O)C2CCCN2C1=O (stereo partly shown) [Example 422] ({CH2CO}-[Cha][X56][Bip(4'-NH)](Benzoyl(3-OCH2COOH))[Sar]HD[dR]I[ξP]V[Ala(imidazol-2-yl)]LCG-NH2; thioether N-13)
